pEC50: −log10 of the molar value.
Biological target: dopamine release
Experiment: Dopamine release (receptor activation/inhibition)
Format: biochemical
Conditions: for pEC50: activation of dopamine release; for Emax (dopamine release): amount released relative to (S)-(-)-nicotine or tetramethylammonium ion (TMA)
Method: Dopamine release was measured using the techniques described in U.S. Pat. No. 5,597,919 to Dull et al. Release is expressed as a percentage of release obtained with a concentration of (S)-(-)-nicotine resulting in maximal effects. Reported EC50 values are expressed in nM, and Emax values represent the amount released relative to (S)-(-)-nicotine or tetramethylammonium ion (TMA), on a percentage basis.
Reported IC50 values are expressed in nM and represent the concentration resulting in 50% inhibition of agonist induced receptor activation. Emax values represent the amount released relative to (S)-(-)-nicotine on a percentage basis.

| Compound | pEC50 | Emax (dopamine release) [%] |
| --- | --- | --- |
| Cl.Cl.Cl.Nc1cncc(C2C3CC4CC(C3)CN2C4)c1 (stereo not drawn) [Sample No. 3, 1-aza-2-[5-amino-(3-pyridyl)]tricyclo[3.3.1.1^3,7]decane trihydrochloride] | < 4.00 | 0 |
| c1cncc(C2C3CC4CC(C3)CN2C4)c1 (stereo not drawn) [Sample No. 1, 1-aza-2-(3-pyridyl)-tricyclo[3.3.1.1^3,7]decane] |  | 0 |
| Brc1cncc(C2C3CC4CC(C3)CN2C4)c1 (stereo not drawn) [Sample No. 2, 1-aza-2-[5-bromo(3-pyridyl)]tricyclo[3.3.1.1^3,7]decane] | < 4.00 | 0 |
| CCOc1cncc(C2C3CC4CC(C3)CN2C4)c1 (stereo not drawn) [Sample No. 4, 1-aza-2-[5-ethoxy-(3-pyridyl)]-tricyclo-[3.3.1.1^3,7]decane] | < 4.00 | 0 |
| CC(C)Oc1cncc(C2C3CC4CC(C3)CN2C4)c1 (stereo not drawn) [Sample No. 5, 1-aza-2-[5-isopropoxy-(3-pyridyl)]tricyclo[3.3.1.1^3,7]decane] | < 4.00 | 0 |
